Measurements from patent US20190136321A1, “USE OF TRANSLATIONAL PROFILING TO IDENTIFY TARGET MOLECULES FOR THERAPEUTIC TREATMENT” (The Regents of The University of California, priority 2013, published 2019).

Tested on: SW620 cells
Assay: Ribosome profiling of SW620 cells (transcription, translational rate, translational efficiency)
Assay type: cell-based, human
Conditions: 8 hours
Method: SW620 human colon cancer cells were cultured in DMEM media supplemented with penicillin G (100 U/ml), streptomycin (100 μg/ml), and 10% FBS in a humidified atmosphere of 5% CO2 maintained at 37° C.
SW620 cells (ATCC, passage 12) were seeded at about 75% confluence 24 hrs prior to drug treatment. […] About 6×10^6 cells/10 cm plate and about 1×10^6 cells/well of a 6-well plate were harvested for ribosome profiling and Western blot analysis, respectively, following drug treatment.

CC(=O)Nc1cccc(-n2c(=O)n(C3CC3)c(=O)c3c(Nc4ccc(I)cc4F)n(C)c(=O)c(C)c32)c1 [GSK212]
Profile TE (gene ARID5A, 250 nM): −0.4 log2 MEKi/DMSO | Profile rna (gene ARID5A, 250 nM): −0.5 log2 MEKi/DMSO | Profile rpf (gene ARID5A, 250 nM): −0.9 log2 MEKi/DMSO | Profile TE (gene B4GALT6, 250 nM): 0.0 log2 MEKi/DMSO | Profile rna (gene B4GALT6, 250 nM): 0.0 log2 MEKi/DMSO | Profile rpf (gene B4GALT6, 250 nM): −0.1 log2 MEKi/DMSO | Profile TE (gene BXDC2/BRIX1, 250 nM): 0.2 log2 MEKi/DMSO | Profile rna (gene BXDC2/BRIX1, 250 nM): −1.1 log2 MEKi/DMSO | Profile rpf (gene BXDC2/BRIX1, 250 nM): −0.8 log2 MEKi/DMSO | Profile TE (gene BYSL, 250 nM): 0.2 log2 MEKi/DMSO | Profile rna (gene BYSL, 250 nM): −0.8 log2 MEKi/DMSO | Profile rpf (gene BYSL, 250 nM): −0.6 log2 MEKi/DMSO | Profile TE (gene CCND1, 250 nM): −0.3 log2 MEKi/DMSO | Profile rna (gene CCND1, 250 nM): −1.8 log2 MEKi/DMSO | Profile rpf (gene CCND1, 250 nM): −2.0 log2 MEKi/DMSO | Profile TE (gene CD3EAP, 250 nM): −0.5 log2 MEKi/DMSO | Profile rna (gene CD3EAP, 250 nM): −0.6 log2 MEKi/DMSO | Profile rpf (gene CD3EAP, 250 nM): −1.1 log2 MEKi/DMSO | Profile TE (gene CHSY1, 250 nM): −0.7 log2 MEKi/DMSO | Profile rna (gene CHSY1, 250 nM): 0.0 log2 MEKi/DMSO | Profile rpf (gene CHSY1, 250 nM): −0.7 log2 MEKi/DMSO | Profile TE (gene DDX21, 250 nM): −0.6 log2 MEKi/DMSO | Profile rna (gene DDX21, 250 nM): −0.3 log2 MEKi/DMSO | Profile rpf (gene DDX21, 250 nM): −1.0 log2 MEKi/DMSO | Profile TE (gene DUSP4, 250 nM): −0.4 log2 MEKi/DMSO | Profile rna (gene DUSP4, 250 nM): −2.0 log2 MEKi/DMSO | Profile rpf (gene DUSP4, 250 nM): −2.4 log2 MEKi/DMSO | Profile TE (gene DUSP6, 250 nM): −3.1 log2 MEKi/DMSO | Profile rna (gene DUSP6, 250 nM): −6.3 log2 MEKi/DMSO | Profile rpf (gene DUSP6, 250 nM): −9.3 log2 MEKi/DMSO | Profile TE (gene EGR1, 250 nM): −3.1 log2 MEKi/DMSO | Profile rna (gene EGR1, 250 nM): −1.0 log2 MEKi/DMSO | Profile rpf (gene EGR1, 250 nM): −4.1 log2 MEKi/DMSO | Profile TE (gene ELOVL6, 250 nM): 0.6 log2 MEKi/DMSO | Profile rna (gene ELOVL6, 250 nM): −1.4 log2 MEKi/DMSO | Profile rpf (gene ELOVL6, 250 nM): −0.8 log2 MEKi/DMSO | Profile rna (gene ETV1, 250 nM): −3.5 log2 MEKi/DMSO | Profile TE (gene ETV4, 250 nM): −0.6 log2 MEKi/DMSO | Profile rna (gene ETV4, 250 nM): −2.2 log2 MEKi/DMSO | Profile rpf (gene ETV4, 250 nM): −2.8 log2 MEKi/DMSO | Profile TE (gene ETV5, 250 nM): −3.0 log2 MEKi/DMSO | Profile rna (gene ETV5, 250 nM): −2.6 log2 MEKi/DMSO | Profile rpf (gene ETV5, 250 nM): −5.6 log2 MEKi/DMSO | Profile TE (gene FLJ10534/TSR1, 250 nM): −0.6 log2 MEKi/DMSO | Profile rna (gene FLJ10534/TSR1, 250 nM): −0.3 log2 MEKi/DMSO | Profile rpf (gene FLJ10534/TSR1, 250 nM): −0.8 log2 MEKi/DMSO | Profile TE (gene FOS, 250 nM): 0.2 log2 MEKi/DMSO | Profile rna (gene FOS, 250 nM): −2.9 log2 MEKi/DMSO | Profile rpf (gene FOS, 250 nM): −2.7 log2 MEKi/DMSO | Profile TE (gene FOSL1, 250 nM): −0.5 log2 MEKi/DMSO | Profile rna (gene FOSL1, 250 nM): −3.6 log2 MEKi/DMSO | Profile rpf (gene FOSL1, 250 nM): −4.1 log2 MEKi/DMSO | Profile TE (gene GEMIN4, 250 nM): −0.5 log2 MEKi/DMSO | Profile rna (gene GEMIN4, 250 nM): −0.1 log2 MEKi/DMSO | Profile rpf (gene GEMIN4, 250 nM): −0.6 log2 MEKi/DMSO | Profile TE (gene GNL3, 250 nM): −0.2 log2 MEKi/DMSO | Profile rna (gene GNL3, 250 nM): −0.7 log2 MEKi/DMSO | Profile rpf (gene GNL3, 250 nM): −0.8 log2 MEKi/DMSO | Profile rpf (gene GPR3, 250 nM): −2.8 log2 MEKi/DMSO | Profile TE (gene GTPBP4, 250 nM): −0.3 log2 MEKi/DMSO | Profile rna (gene GTPBP4, 250 nM): −0.4 log2 MEKi/DMSO | Profile rpf (gene GTPBP4, 250 nM): −0.7 log2 MEKi/DMSO | Profile TE (gene HMGA2, 250 nM): 1.2 log2 MEKi/DMSO | Profile rna (gene HMGA2, 250 nM): −2.9 log2 MEKi/DMSO | Profile rpf (gene HMGA2, 250 nM): −1.7 log2 MEKi/DMSO | Profile TE (gene HSPC111/NOP16, 250 nM): 0.6 log2 MEKi/DMSO | Profile rna (gene HSPC111/NOP16, 250 nM): −1.5 log2 MEKi/DMSO | Profile rpf (gene HSPC111/NOP16, 250 nM): −0.9 log2 MEKi/DMSO | Profile TE (gene IER3, 250 nM): −0.1 log2 MEKi/DMSO | Profile rna (gene IER3, 250 nM): −2.2 log2 MEKi/DMSO | Profile rpf (gene IER3, 250 nM): −2.3 log2 MEKi/DMSO | Profile TE (gene IL8, 250 nM): 2.4 log2 MEKi/DMSO | Profile rna (gene IL8, 250 nM): −5.6 log2 MEKi/DMSO | Profile rpf (gene IL8, 250 nM): −3.2 log2 MEKi/DMSO
